Measured values as given in publication PMC7956564, “Porphyromonas gingivalis HmuY and Bacteroides vulgatus Bvu—A Novel Competitive Heme Acquisition Strategy” (International Journal of Molecular Sciences, 2021).

Target: T1, Bvu (Phocaeicola vulgatus, UniProt A6L2D9)
T1 construct: gene BVU_2192
Assay: biochemical

T1 sequence (A6L2D9 entry or part of it): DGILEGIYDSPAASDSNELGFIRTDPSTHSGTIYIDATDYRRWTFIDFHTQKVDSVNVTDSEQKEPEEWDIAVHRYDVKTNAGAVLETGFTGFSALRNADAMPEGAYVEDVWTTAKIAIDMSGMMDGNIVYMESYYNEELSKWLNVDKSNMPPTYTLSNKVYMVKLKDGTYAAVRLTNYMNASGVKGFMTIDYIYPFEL

Q: How did the Kd turn out when C=CC1=C(C)C2=Cc3c(C=C)c(C)c4[n]3[Fe][n]3c(c(C)c(CCC(=O)O)c3=CC3=NC(=C4)C(C)=C3CCC(=O)O)=CC1=N2 [Fe(II)heme] was run?
A: 1.6 nM
